Measured values reported in PubChem BioAssay (NCI).
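All cell lines were grown in 96-well plates and treated with compound for 48 hours. The concentration for 50% growth inhibition is given as GI50. The concentration for full growth arrest is given as TGI.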

Columns and labels:
Experiment in all cases: NCI-60 cell line screen, 48 h
A549 NSCLC = system: A549 NSCLC
SNB-75 CNS = system: SNB-75 CNS
T-47D breast = system: T-47D breast
MDA-MB-231 breast = system: MDA-MB-231 breast
NCI/ADR-RES ovarian = system: NCI/ADR-RES ovarian
HL-60(TB) leukemia = system: HL-60(TB) leukemia
SK-MEL-28 melanoma = system: SK-MEL-28 melanoma
MCF7 breast = system: MCF7 breast
HCT-15 colon = system: HCT-15 colon
IGROV1 ovarian = system: IGROV1 ovarian

SMILES	GI50 (A549 NSCLC) [µM]	TGI (A549 NSCLC) [µM]	GI50 (SNB-75 CNS) [µM]	TGI (SNB-75 CNS) [µM]	GI50 (T-47D breast) [µM]	TGI (T-47D breast) [µM]	GI50 (MDA-MB-231 breast) [µM]	TGI (MDA-MB-231 breast) [µM]	GI50 (NCI/ADR-RES ovarian) [µM]	TGI (NCI/ADR-RES ovarian) [µM]	GI50 (HL-60(TB) leukemia) [µM]	TGI (HL-60(TB) leukemia) [µM]	GI50 (SK-MEL-28 melanoma) [µM]	TGI (SK-MEL-28 melanoma) [µM]	GI50 (MCF7 breast) [µM]	TGI (MCF7 breast) [µM]	GI50 (HCT-15 colon) [µM]	TGI (HCT-15 colon) [µM]	GI50 (IGROV1 ovarian) [µM]	TGI (IGROV1 ovarian) [µM]
CC(C)=CC[C@@H]1CC2(CC=C(C)C)C(=O)C(OC3(C(=O)c4ccccc4)C(=O)C4(CC=C(C)C)C[C@@H](CC=C(C)C)C(C)(C)C(CC=C(C)C)(C4=O)C3=O)(C(=O)c3ccccc3)C(=O)C(CC=C(C)C)(C2=O)C1(C)C (stereo not given in full)	1.73	6.05	1.11	5.62	1.19	4.07	1.49	4.12	1.6	5.67	1.06	2.44	1.18	3.25	1.37	5.85	1.41	5.23	1.63	7
Cn1ncnc1[C@@H]1c2n[nH]c(=O)c3cc(F)cc(c23)N[C@H]1c1ccc(F)cc1	> 100	> 100	> 100	> 100	> 100	> 100	> 100	> 100	> 100	> 100	> 100	> 100	> 100	> 100	> 100	> 100	> 100	> 100	> 100	> 100
Cc1cc(I)cc(CNCCN(C)C)c1O	99.7	> 100	49.4	> 100	76.3	> 100	> 59.5	> 100	> 84.5	> 100	57.8	> 100	28.5	> 80.4	> 100	> 100	43.8	> 100	48.4	> 100
CNC(=O)Oc1cc(C(C)C)ccc1Sc1ccc(C(C)C)cc1OC(=O)NC	5.22	18.4	2.88	12.2	10.2	25.9	5.48	19.4	3.9	18.6	3.06	12.7	4.99	17.9	5.49	18.2	1.95	16.1	4.98	23.8
C=C(CO)C(=O)OC1CC(=C)C2CC(O)C(C)C2C2OC(=O)C(=C)C12 (stereo not given)	–	> 100	–	45.6	–	> 100	–	36.2	–	> 100	–	62.5	–	57.6	–	34.3	–	35	–	39.3
Cn1cc(C2=C(c3ccsc3)C(=O)NC2=O)c2ccccc21	> 25	> 25	1.07	> 25	7.97	> 25	> 25	> 25	> 25	> 25	> 25	> 25	> 25	> 25	1.58	> 25	> 22.7	> 25	> 25	> 25
COc1cc(/C=C/C(=O)c2cccc(-n3cc(-c4ccccc4)[nH]c3=O)c2)cc(OC)c1OC	4.03	> 100	4.47	16.8	2.19	6.9	2.17	6.18	1.09	4.58	2.9	> 100	1.74	3.2	0.31	1.12	1.13	5.7	2	4.7
